{
  "source": "patent US20240293472A1",
  "about": "“Bee Product Extracts, Methods of Production, and Uses Thereof” (Quantum Technologies Limited, priority 2020, published 2024)",
  "target": "T1, HDAC1 (Homo sapiens, UniProt Q13547)",
  "T1 construct": "purchased Huntingtree Associates Ltd",
  "T1 sequence (Q13547 whole entry)": "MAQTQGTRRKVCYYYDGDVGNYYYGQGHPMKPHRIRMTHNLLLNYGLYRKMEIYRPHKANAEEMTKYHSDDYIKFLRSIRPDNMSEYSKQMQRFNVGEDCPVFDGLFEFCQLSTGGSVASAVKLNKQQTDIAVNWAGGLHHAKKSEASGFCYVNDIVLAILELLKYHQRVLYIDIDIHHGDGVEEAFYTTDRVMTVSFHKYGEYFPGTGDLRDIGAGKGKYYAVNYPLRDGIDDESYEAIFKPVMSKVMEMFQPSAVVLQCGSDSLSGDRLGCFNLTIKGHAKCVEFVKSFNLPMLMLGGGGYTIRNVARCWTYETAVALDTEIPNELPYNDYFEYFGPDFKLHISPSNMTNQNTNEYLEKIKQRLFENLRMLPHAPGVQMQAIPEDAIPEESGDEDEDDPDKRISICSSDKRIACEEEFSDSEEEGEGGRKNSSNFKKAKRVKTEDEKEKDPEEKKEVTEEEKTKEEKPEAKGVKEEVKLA",
  "experiment": "Epigenase HDAC Activity/Inhibition Direct Assay Kit (Colorimetric)",
  "assay_type": "biochemical",
  "details": "FIG. 20",
  "data": [
    {"smiles": "CC(=O)C=O", "note": "[MGO, Methylglyoxal]", "values": [
      {"measurement": "HDAC inhibition", "result": "dose response inhibition"}
    ]}
  ]
}
